{"source": "patent US11274083B2", "about": "“Substituted thiophenyl uracils, salts thereof and the use thereof as herbicidal agents” (Syngenta Crop Protection AG, priority 2017, dated 2022)", "format_in_all_cases": "in vivo", "key": {"[1]": {"system": "Abutilon theophrasti", "test": "Herbicidal action post-emergence, greenhouse pot test", "conditions": "application rate 80 g/ha", "summary_of_the_method": "(§1)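 Weeds were sown in sandy loam and grown in a greenhouse for 2 to 3 weeks, then sprayed at the one-leaf stage with WP or EC formulations plus 0.5% additive at 600 L/ha water, at 80 g/ha or lower. Efficacy was scored visually about 3 weeks later against untreated controls.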"}, "[2]": {"system": "Alopecurus myosuroides", "test": "Herbicidal action post-emergence, greenhouse pot test", "conditions": "application rate 80 g/ha, scored visually after about 3 weeks vs untreated controls", "summary_of_the_method": "as §1"}, "[3]": {"system": "Amaranthus retroflexus", "test": "Herbicidal action post-emergence, greenhouse pot test", "conditions": "application rate 80 g/ha", "summary_of_the_method": "as §1"}, "[4]": {"system": "Avena fatua", "test": "Herbicidal action post-emergence, greenhouse pot test", "conditions": "application rate 80 g/ha", "summary_of_the_method": "as §1"}, "[5]": {"system": "Echinochloa crus-galli", "test": "Herbicidal action post-emergence, greenhouse pot test", "conditions": "application rate 80 g/ha", "summary_of_the_method": "as §1"}, "[6]": {"system": "Lolium multiflorum", "test": "Herbicidal action post-emergence, greenhouse pot test", "conditions": "application rate 80 g/ha", "summary_of_the_method": "as §1"}, "[7]": {"system": "Matricaria inodora", "test": "Herbicidal action post-emergence, greenhouse pot test", "conditions": "application rate 80 g/ha", "summary_of_the_method": "as §1"}, "[8]": {"system": "Pharbitis purpurea", "test": "Herbicidal action post-emergence, greenhouse pot test", "conditions": "application rate 80 g/ha", "summary_of_the_method": "as §1"}, "[9]": {"system": "Polygonum convolvulus", "test": "Herbicidal action post-emergence, greenhouse pot test", "conditions": "application rate 80 g/ha", "summary_of_the_method": "as §1"}, "[10]": {"system": "Setaria viridis", "test": "Herbicidal action post-emergence, greenhouse pot test", "conditions": "application rate 80 g/ha", "summary_of_the_method": "as §1"}, "[11]": {"system": "Stellaria media", "test": "Herbicidal action post-emergence, greenhouse pot test", "conditions": "application rate 80 g/ha", "summary_of_the_method": "as §1"}, "[12]": {"system": "Veronica persica", "test": "Herbicidal action post-emergence, greenhouse pot test", "conditions": "application rate 80 g/ha", "summary_of_the_method": "as §1"}, "[13]": {"system": "Viola tricolor", "test": "Herbicidal action post-emergence, greenhouse pot test", "conditions": "application rate 80 g/ha", "summary_of_the_method": "as §1"}, "[14]": {"system": "Oryza sativa", "test": "Crop compatibility post-emergence, greenhouse pot test", "conditions": "application rate 20 g/ha", "summary_of_the_method": "(§2)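 Pot-grown plants in sandy loam, greenhouse, sprayed post-emergence at the one-leaf stage (2–3 weeks after sowing) with WP or EC formulations as aqueous spray plus 0.5% additive at 600 L/ha. Damage scored visually after about 3 weeks versus untreated controls, in % (0% = like control, 100% = dead).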"}, "[15]": {"system": "Triticum aestivum", "test": "Crop compatibility post-emergence, greenhouse pot test", "conditions": "application rate 20 g/ha", "summary_of_the_method": "as §2"}, "[16]": {"system": "Abutilon theophrasti", "test": "Herbicidal action pre-emergence, greenhouse pot test", "conditions": "application rate 320 g/ha", "summary_of_the_method": "(§3)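 Seeds were sown in pots and covered with soil, then compounds formulated as WP or EC were sprayed onto the soil surface as aqueous suspension or emulsion with 0.5% additive at 600 L/ha water, 320 g/ha or lower. After about 3 weeks in the greenhouse, efficacy was scored visually as % versus untreated controls.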"}, "[17]": {"system": "Alopecurus myosuroides", "test": "Herbicidal action pre-emergence, greenhouse pot test", "conditions": "application rate 80 g/ha", "summary_of_the_method": "as §3"}, "[18]": {"system": "Amaranthus retroflexus", "test": "Herbicidal action pre-emergence, greenhouse pot test", "conditions": "application rate 80 g/ha", "summary_of_the_method": "as §3"}, "[19]": {"system": "Cyperus esculentus", "test": "Herbicidal action pre-emergence, greenhouse pot test", "conditions": "application rate 320 g/ha", "summary_of_the_method": "as §3"}, "[20]": {"system": "Echinochloa crus-galli", "test": "Herbicidal action pre-emergence, greenhouse pot test", "conditions": "application rate 320 g/ha", "summary_of_the_method": "as §3"}, "[21]": {"system": "Lolium multiflorum", "test": "Herbicidal action pre-emergence, greenhouse pot test", "conditions": "application rate 80 g/ha, scored visually after about 3 weeks vs untreated controls", "summary_of_the_method": "as §3"}, "[22]": {"system": "Pharbitis purpurea", "test": "Herbicidal action pre-emergence, greenhouse pot test", "conditions": "application rate 320 g/ha", "summary_of_the_method": "as §3"}, "[23]": {"system": "Polygonum convolvulus", "test": "Herbicidal action pre-emergence, greenhouse pot test", "conditions": "application rate 320 g/ha", "summary_of_the_method": "as §3"}, "[24]": {"system": "Setaria viridis", "test": "Herbicidal action pre-emergence, greenhouse pot test", "conditions": "application rate 320 g/ha", "summary_of_the_method": "as §3"}, "[25]": {"system": "Stellaria media", "test": "Herbicidal action pre-emergence, greenhouse pot test", "conditions": "application rate 320 g/ha", "summary_of_the_method": "as §3"}, "[26]": {"system": "Veronica persica", "test": "Herbicidal action pre-emergence, greenhouse pot test", "conditions": "application rate 320 g/ha", "summary_of_the_method": "as §3"}, "[27]": {"system": "Viola tricolor", "test": "Herbicidal action pre-emergence, greenhouse pot test", "conditions": "application rate 320 g/ha", "summary_of_the_method": "as §3"}, "[28]": {"system": "Matricaria inodora", "test": "Herbicidal action pre-emergence, greenhouse pot test", "conditions": "application rate 320 g/ha"}}, "data": [{"smiles": "CCOC(=O)CCOC(=O)C(C)Sc1cc(-n2c(=O)cc(C(F)(F)F)n(C)c2=O)c(F)cc1Cl", "note": "(stereo not shown) [I.1-3]", "values": [{"measurement": "Abutilon theophrasti (Efficacy in %)", "setting": "[1]", "value": 100, "unit": "%"}, {"measurement": "Alopecurus myosuroides (Efficacy in %)", "setting": "[2]", "value": 100, "unit": "%"}, {"measurement": "Amaranthus retroflexus (Efficacy in %)", "setting": "[3]", "value": 100, "unit": "%"}, {"measurement": "Avena fatua (Efficacy in %)", "setting": "[4]", "value": 80, "unit": "%"}, {"measurement": "Echinochloa crus-galli (Efficacy in %)", "setting": "[5]", "value": 100, "unit": "%"}, {"measurement": "Lolium multiflorum (Efficacy in %)", "setting": "[6]", "value": 100, "unit": "%"}, {"measurement": "Matricaria inodora (Efficacy in %)", "setting": "[7]", "value": 100, "unit": "%"}, {"measurement": "Pharbitis purpurea (Efficacy in %)", "setting": "[8]", "value": 100, "unit": "%"}, {"measurement": "Polygonum convolvulus (Efficacy in %)", "setting": "[9]", "value": 100, "unit": "%"}, {"measurement": "Setaria viridis (Efficacy in %)", "setting": "[10]", "value": 100, "unit": "%"}, {"measurement": "Stellaria media (Efficacy in %)", "setting": "[11]", "value": 100, "unit": "%"}, {"measurement": "Veronica persica (Efficacy in %)", "setting": "[12]", "value": 100, "unit": "%"}, {"measurement": "Viola tricolor (Efficacy in %)", "setting": "[13]", "value": 100, "unit": "%"}, {"measurement": "Oryza sativa (Efficacy in %)", "setting": "[14]", "value": 20, "unit": "%"}, {"measurement": "Triticum aestivum (Efficacy in %)", "setting": "[15]", "value": 10, "unit": "%"}, {"measurement": "Abutilon theophrasti (Efficacy in %)", "setting": "[16]", "value": 100, "unit": "%"}, {"measurement": "Alopecurus myosuroides (Efficacy in %)", "setting": "[17]", "value": 90, "unit": "%"}, {"measurement": "Amaranthus retroflexus (Efficacy in %)", "setting": "[18]", "value": 100, "unit": "%"}, {"measurement": "Cyperus esculentus (Efficacy in %)", "setting": "[19]", "value": 100, "unit": "%"}, {"measurement": "Echinochloa crus-galli (Efficacy in %)", "setting": "[20]", "value": 100, "unit": "%"}, {"measurement": "Lolium multiflorum (Efficacy in %)", "setting": "[21]", "value": 100, "unit": "%"}, {"measurement": "Pharbitis purpurea (Efficacy in %)", "setting": "[22]", "value": 100, "unit": "%"}, {"measurement": "Polygonum convolvulus (Efficacy in %)", "setting": "[23]", "value": 100, "unit": "%"}, {"measurement": "Setaria viridis (Efficacy in %)", "setting": "[24]", "value": 100, "unit": "%"}, {"measurement": "Stellaria media (Efficacy in %)", "setting": "[25]", "value": 100, "unit": "%"}, {"measurement": "Veronica persica (Efficacy in %)", "setting": "[26]", "value": 100, "unit": "%"}, {"measurement": "Viola tricolor (Efficacy in %)", "setting": "[27]", "value": 100, "unit": "%"}, {"measurement": "Matricaria inodora (Efficacy in %)", "setting": "[28]", "value": 100, "unit": "%"}]}]}
